Measured values published in ChEMBL document CHEMBL1201862, “PubChem BioAssay data set” (2004).
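Briefly, cells in 96-well plates were exposed to five compound concentrations for 48 h, and endpoints were estimated by linear interpolation. GI50 = concentration required for 50% inhibition of growth.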 Calls of active or inactive are those of the source. No stated cut-off is given here; in the data, active = GI50 up to about 1.1 µM and inactive = higher.

Tests used:
Assay in all cases: NCI tumour cell line growth inhibition, 48 h
[1] = system: 786-0
[2] = system: A549
[3] = system: ACHN
[4] = system: CAKI-1
[5] = system: CCRF-CEM
[6] = system: COLO 205
[7] = system: DLD-1
[8] = system: DMS-114
[9] = system: DMS-273
[10] = system: EKVX
[11] = system: HCC 2998
[12] = system: HCT-116
[13] = system: HCT-15
[14] = system: HL-60
[15] = system: HOP-18
[16] = system: HOP-62
[17] = system: HOP-92
[18] = system: HT-29
[19] = system: IGROV-1
[20] = system: K562
[21] = system: KM12
[22] = system: LOX IMVI
[23] = system: LXFL 529
[24] = system: M14
[25] = system: M19-MEL
[26] = system: MOLT-4
[27] = system: Malme-3M
[28] = system: NCI-H226
[29] = system: NCI-H23
[30] = system: NCI-H460
[31] = system: NCI-H522
[32] = system: OVCAR-3
[33] = system: OVCAR-4
[34] = system: OVCAR-5
[35] = system: OVCAR-8
[36] = system: RPMI-8226
[37] = system: RXF 393
[38] = system: RXF 631
[39] = system: SF-268
[40] = system: SF-295
[41] = system: SF-539
[42] = system: SK-MEL-28
[43] = system: SK-MEL-2
[44] = system: SK-MEL-5
[45] = system: SK-OV-3
[46] = system: SN12C
[47] = system: SNB-19
[48] = system: SNB-75
[49] = system: SNB-78
[50] = system: SR
[51] = system: SW-620
[52] = system: TK-10
[53] = system: U-251
[54] = system: UACC-257
[55] = system: UACC-62
[56] = system: UO-31
[57] = system: XF498

Measured: GI50

CCCCCCCCCc1cc(=O)c2c(O)cccc2o1
inactive: [1] 51.4 µM | [2] 41.8 µM | [3] 42.7 µM | [4] 69.3 µM | [5] 30.8 µM | [6] > 100 µM | [7] 61.8 µM | [8] 33 µM | [9] 41.8 µM | [10] 51.8 µM | [11] 65 µM | [12] 30.3 µM | [14] 25.2 µM | [15] > 100 µM | [16] > 100 µM | [17] 57.5 µM | [18] > 10 µM | [19] 79.6 µM | [20] 29.2 µM | [21] 40.6 µM | [22] 22.8 µM | [23] 39.2 µM | [24] 39.4 µM | [25] > 10 µM | [26] 20.4 µM | [27] 19.3 µM | [28] 38.1 µM | [29] 65.5 µM | [30] 56.2 µM | [31] 34.9 µM | [32] 75.9 µM | [33] 50.7 µM | [34] 38.8 µM | [35] 38.7 µM | [36] 38.2 µM | [37] 53 µM | [38] 65.6 µM | [39] 31.8 µM | [40] 46.3 µM | [41] > 100 µM | [42] 55.6 µM | [43] 23.2 µM | [44] 21 µM | [45] > 100 µM | [46] 87.3 µM | [47] 74.3 µM | [48] > 10 µM | [49] 53 µM | [50] 37.4 µM | [51] 57.9 µM | [52] 54 µM | [53] 48.1 µM | [54] 36.3 µM | [55] 58.2 µM | [56] 37.1 µM | [57] 31.2 µM
41.3 µM: [13]
